Data published in patent publication US8748481B2, “Method for treating gastrointestinal disorder” (Sucampo AG, priority 2004, dated 2014).

Experiments:
Type in all cases: in vivo, human
[1] = system: subjects with occasional constipation; experiment: Severity of constipation, abdominal bloating and abdominal discomfort during 6 and 12 months treatment (Example 1); details: 48 μg/day, 6 months and 12 months treatment
Experimental: Multi-center, open-label study was performed to evaluate the safety of 48 μg of Compound A (13,14-dihydro-15-keto-16,16-difluoro-PGE1) (24 μg of Compound A b.i.d) when administered daily for 24 weeks (6 months) or 48 weeks (12 months) to subjects with occasional constipation. […] After 14-day drug-free washout period, they received 48 μg of Compound A (24 μg of Compound A b.i.d) orally for 48 weeks.
Each parameter (Severity of Constipation, Abdominal bloating or Abdominal discomfort) was evaluated on the scale of: 0 (absent), 1 (mild), 2 (moderate), 3 (severe) and 4 (very severe) in the patients during 6 months (n=246) or 12 months (n=304) treatments.

[2] = system: male and female patients with occasional constipation; experiment: Weekly number of spontaneous bowel movements in male vs. female patients (Example 4); details: 48 μg/day, 4 weeks
Experimental: Multi-center, parallel-group, double-blind, placebo-controlled study was performed to compare the effect of Compound A on the weekly number of spontaneous bowel movements in male and female patients. Male and female patients with occasional constipation were received 48 μg (total daily dose) of Compound A (24 μg of Compound A b.i.d) for 4 weeks. The bowel movements in the patient were recorded during the treatment.

[3] = system: patients with irritable bowel syndrome (IBS); experiment: 48-week treatment of IBS patients: abdominal discomfort, abdominal bloating, severity of constipation (Example 3); set-up: key to Abdominal discomfort, Change from Baseline, Median / Abdominal bloating, Change from Baseline, Median: change on 0 (absent) to 4 (very severe) scale; key to Severity of Constipation, Change from Baseline, Median: change on 0 (very loose) to 4 (very hard) scale; details: for Abdominal bloating, Mean ± SD / Abdominal bloating, Median / Abdominal discomfort, Mean ± SD / Abdominal discomfort, Median / Severity of Constipation, Mean ± SD / Severity of Constipation, Median: scale 0-4
Experimental: Patients with irritable bowel syndrome (IBS) were treated with 48 μg of Compound A (24 μg of Compound A b.i.d) for 48 weeks.
In this study, we evaluated the following parameters. • 1) Abdominal discomfort • 2) Abdominal bloating • 3) Severity of Constipation
Each of Abdominal discomfort and Abdominal bloating was evaluated on a scale of: 0 (absent), 1 (mild), 2 (moderate), 3 (severe) and 4 (very severe) in the patients. Severity of Constipation was evaluated on a scale of: 0 (very loose), 1: (loose), 2: (normal), 3 (hard), 4 (very hard) in the patients.

Structure (SMILES): CCCCC(F)(F)C(=O)CCC1C(O)CC(=O)C1CCCCCCC(=O)O (stereo not shown) [Compound A, 13,14-dihydro-15-keto-16,16-difluoro-PGE1]
- Efficacy on severity of constipation, abdominal bloating and abdominal discomfort (FIGS. 1 to 6) [1]: effective
- Difference between the effects in male and female patients [2]: no significant difference
- Effect on weekly number of spontaneous bowel movements (FIG. 13) ([2]; both male and female patients): significantly effective
- Efficacy in IBS patients (Tables 2 to 4) ([3]; 48 μg/day, 12 months treatment): effective
- Abdominal bloating, Mean ± SD ([3]; Baseline): 2.23 ± 0.927 (183)
- Abdominal bloating, Median ([3]; Baseline): 2.00
- Abdominal discomfort, Mean ± SD ([3]; Baseline): 1.95 ± 0.850 (183)
- Abdominal discomfort, Median ([3]; Baseline): 2.00
- Severity of Constipation, Mean ± SD ([3]; Baseline): 2.95 ± 0.751 (183)
- Severity of Constipation, Median ([3]; Baseline): 3.00
- Abdominal bloating, Change from Baseline, Mean ± SD ([3]; End of Treatment, 48 μg/day): −0.73 ± 1.075 (183)
- Abdominal bloating, Change from Baseline, Median ([3]; End of Treatment, 48 μg/day): −1.00
- Abdominal discomfort, Change from Baseline, Mean ± SD ([3]; End of Treatment, 48 μg/day): −0.66 ± 1.112 (183)
- Abdominal discomfort, Change from Baseline, Median ([3]; End of Treatment, 48 μg/day): −1.00
- Severity of Constipation, Change from Baseline, Mean ± SD ([3]; End of Treatment, 48 μg/day): −1.11 ± 1.148 (183)
- Severity of Constipation, Change from Baseline, Median ([3]; End of Treatment, 48 μg/day): −1.00
- Abdominal bloating, Mean ± SD ([3]; End of Treatment, 48 μg/day): 1.50 ± 1.005 (183)
- Abdominal bloating, Median ([3]; End of Treatment, 48 μg/day): 1.00
- Abdominal discomfort, Mean ± SD ([3]; End of Treatment, 48 μg/day): 1.28 ± 1.020 (183)
- Abdominal discomfort, Median ([3]; End of Treatment, 48 μg/day): 1.00
- Severity of Constipation, Mean ± SD ([3]; End of Treatment, 48 μg/day): 1.84 ± 1.120 (183)
- Severity of Constipation, Median ([3]; End of Treatment, 48 μg/day): 2.00
- Abdominal bloating, Change from Baseline, Mean ± SD ([3]; Follow-Up): −0.69 ± 1.109 (121)
- Abdominal bloating, Change from Baseline, Median ([3]; Follow-Up): −1.00
- Abdominal discomfort, Change from Baseline, Mean ± SD ([3]; Follow-Up): −0.55 ± 1.080 (121)
- Abdominal discomfort, Change from Baseline, Median ([3]; Follow-Up): −1.00
- Severity of Constipation, Change from Baseline, Mean ± SD ([3]; Follow-Up): −0.88 ± 1.122 (121)
- Severity of Constipation, Change from Baseline, Median ([3]; Follow-Up): −1.00
- Abdominal bloating, Mean ± SD ([3]; Follow-Up): 1.55 ± 0.957 (121)
- Abdominal bloating, Median ([3]; Follow-Up): 2.00
- Abdominal discomfort, Mean ± SD ([3]; Follow-Up): 1.40 ± 0.996 (121)
- Abdominal discomfort, Median ([3]; Follow-Up): 1.00
- Severity of Constipation, Mean ± SD ([3]; Follow-Up): 2.07 ± 0.946 (121)
- Severity of Constipation, Median ([3]; Follow-Up): 2.00
- Abdominal bloating, Change from Baseline, Mean ± SD ([3]; Week 12, 48 μg/day): −0.84 ± 1.045 (135)
- Abdominal bloating, Change from Baseline, Median ([3]; Week 12, 48 μg/day): −1.00
- Abdominal discomfort, Change from Baseline, Mean ± SD ([3]; Week 12, 48 μg/day): −0.79 ± 0.993 (135)
- Abdominal discomfort, Change from Baseline, Median ([3]; Week 12, 48 μg/day): −1.00
- Severity of Constipation, Change from Baseline, Mean ± SD ([3]; Week 12, 48 μg/day): −1.16 ± 1.099 (135)
- Severity of Constipation, Change from Baseline, Median ([3]; Week 12, 48 μg/day): −1.00
- Abdominal bloating, Mean ± SD ([3]; Week 12, 48 μg/day): 1.43 ± 0.919 (135)
- Abdominal bloating, Median ([3]; Week 12, 48 μg/day): 1.00
- Abdominal discomfort, Mean ± SD ([3]; Week 12, 48 μg/day): 1.16 ± 0.836 (135)
- Abdominal discomfort, Median ([3]; Week 12, 48 μg/day): 1.00
- Severity of Constipation, Mean ± SD ([3]; Week 12, 48 μg/day): 1.76 ± 1.003 (135)
- Severity of Constipation, Median ([3]; Week 12, 48 μg/day): 2.00
- Abdominal bloating, Change from Baseline, Mean ± SD ([3]; Week 18, 48 μg/day): −1.07 ± 1.068 (111)
- Abdominal bloating, Change from Baseline, Median ([3]; Week 18, 48 μg/day): −1.00
- Abdominal discomfort, Change from Baseline, Mean ± SD ([3]; Week 18, 48 μg/day): −0.97 ± 1.031 (111)
- Abdominal discomfort, Change from Baseline, Median ([3]; Week 18, 48 μg/day): −1.00
- Severity of Constipation, Change from Baseline, Mean ± SD ([3]; Week 18, 48 μg/day): −1.59 ± 1.148 (111)
- Severity of Constipation, Change from Baseline, Median ([3]; Week 18, 48 μg/day): −2.00
- Abdominal bloating, Mean ± SD ([3]; Week 18, 48 μg/day): 1.19 ± 0.837 (111)
- Abdominal bloating, Median ([3]; Week 18, 48 μg/day): 1.00
- Abdominal discomfort, Mean ± SD ([3]; Week 18, 48 μg/day): 0.98 ± 0.874 (111)
- Abdominal discomfort, Median ([3]; Week 18, 48 μg/day): 1.00
- Severity of Constipation, Mean ± SD ([3]; Week 18, 48 μg/day): 1.33 ± 0.985 (111)
- Severity of Constipation, Median ([3]; Week 18, 48 μg/day): 1.00
- Abdominal bloating, Change from Baseline, Mean ± SD ([3]; Week 24, 48 μg/day): −0.95 ± 1.102 (107)
- Abdominal bloating, Change from Baseline, Median ([3]; Week 24, 48 μg/day): −1.00
- Abdominal discomfort, Change from Baseline, Mean ± SD ([3]; Week 24, 48 μg/day): −0.82 ± 1.035 (107)
- Abdominal discomfort, Change from Baseline, Median ([3]; Week 24, 48 μg/day): −1.00
- Severity of Constipation, Change from Baseline, Mean ± SD ([3]; Week 24, 48 μg/day): −1.40 ± 1.036 (107)
- Severity of Constipation, Change from Baseline, Median ([3]; Week 24, 48 μg/day): −1.00
- Abdominal bloating, Mean ± SD ([3]; Week 24, 48 μg/day): 1.26 ± 0.915 (107)
- Abdominal bloating, Median ([3]; Week 24, 48 μg/day): 1.00
- Abdominal discomfort, Mean ± SD ([3]; Week 24, 48 μg/day): 1.09 ± 0.917 (107)
- Abdominal discomfort, Median ([3]; Week 24, 48 μg/day): 1.00
- Severity of Constipation, Mean ± SD ([3]; Week 24, 48 μg/day): 1.50 ± 0.965 (107)
- Severity of Constipation, Median ([3]; Week 24, 48 μg/day): 1.00
- Abdominal bloating, Change from Baseline, Mean ± SD ([3]; Week 36, 48 μg/day): −1.00 ± 1.134 (57)
- Abdominal bloating, Change from Baseline, Median ([3]; Week 36, 48 μg/day): −1.00
- Abdominal discomfort, Change from Baseline, Mean ± SD ([3]; Week 36, 48 μg/day): −0.77 ± 0.926 (57)
- Abdominal discomfort, Change from Baseline, Median ([3]; Week 36, 48 μg/day): −1.00
- Severity of Constipation, Change from Baseline, Mean ± SD ([3]; Week 36, 48 μg/day): −1.33 ± 1.123 (57)
- Severity of Constipation, Change from Baseline, Median ([3]; Week 36, 48 μg/day): −1.00
- Abdominal bloating, Mean ± SD ([3]; Week 36, 48 μg/day): 1.05 ± 0.854 (57)
- Abdominal bloating, Median ([3]; Week 36, 48 μg/day): 1.00
- Abdominal discomfort, Mean ± SD ([3]; Week 36, 48 μg/day): 0.93 ± 0.799 (57)
- Abdominal discomfort, Median ([3]; Week 36, 48 μg/day): 1.00
- Severity of Constipation, Mean ± SD ([3]; Week 36, 48 μg/day): 1.39 ± 0.921 (57)
- Severity of Constipation, Median ([3]; Week 36, 48 μg/day): 1.00
- Abdominal bloating, Change from Baseline, Mean ± SD ([3]; Week 48, 48 μg/day): −0.94 ± 0.802 (52)
- Abdominal bloating, Change from Baseline, Median ([3]; Week 48, 48 μg/day): −1.00
- Abdominal discomfort, Change from Baseline, Mean ± SD ([3]; Week 48, 48 μg/day): −0.81 ± 0.908 (52)
- Abdominal discomfort, Change from Baseline, Median ([3]; Week 48, 48 μg/day): −1.00
- Severity of Constipation, Change from Baseline, Mean ± SD ([3]; Week 48, 48 μg/day): −1.37 ± 1.095 (51)
- Severity of Constipation, Change from Baseline, Median ([3]; Week 48, 48 μg/day): −1.00
- Abdominal bloating, Mean ± SD ([3]; Week 48, 48 μg/day): 1.12 ± 0.832 (52)
- Abdominal bloating, Median ([3]; Week 48, 48 μg/day): 1.00
- Abdominal discomfort, Mean ± SD ([3]; Week 48, 48 μg/day): 0.87 ± 0.929 (52)
- Abdominal discomfort, Median ([3]; Week 48, 48 μg/day): 1.00
- Severity of Constipation, Mean ± SD ([3]; Week 48, 48 μg/day): 1.37 ± 0.894 (51)
- Severity of Constipation, Median ([3]; Week 48, 48 μg/day): 1.00
